The numbers were not newly measured in patent US20050136109A1, “Extended release tablet formulations of venlafaxine” (Wyeth, priority 2003, published 2005), which cites them from elsewhere.

Counter-ions that a name gives are not always drawn.

For the data set the following is noted: plural daily dosing regimen, immediate release tablets.

In the case of `COc1ccc(C(CN(C)C)C2(O)CCCCC2)cc1` (centres unmarked) [venlafaxine hydrochloride, 1-[2-(dimethylamino)-1-(4-methoxyphenyl)ethyl]-cyclo-hexanol], the “Vomiting, patients experiencing” value is on record as “about seventeen” and the “nausea, patients experiencing” value is “about forty five”.
